{"source": "ChEMBL document CHEMBL5223096", "about": "“Potential therapeutic targets from Mycobacterium abscessus (Mab): recently reported efforts towards the discovery of novel antibacterial agents to treat Mab infections” (RSC Med Chem, 2022)", "key": {"[1]": {"system": "Mycobacteroides abscessus", "experiment": "Antimycobacterial activity against Mycobacterium abscessus", "type": "functional"}, "[2]": {"experiment": "Binding affinity to Mycobacterium abscessus ClpC1 by SPR assay", "design": "species or system Mycobacteroides abscessus"}, "[3]": {"system": "Mycobacterium tuberculosis", "experiment": "Antimycobacterial activity against Mycobacterium tuberculosis", "type": "functional"}}, "note": "Numbered stars: 1 amine (or outer) side, 2 acyl side, 3 side chain; on linkers, the order of the positions; unused ones are H or OH. Bridge positions count the residues as written; N and C are the ends. Square brackets hold non-standard residues; d marks the D form. Peptide text beside a SMILES is read from it. * marks the point of attachment. Phe(3R-OH) = O=C([C@@H](N[*:1])[C@H](O[*:3])c1ccccc1)[*:2]; NMeTrp(4-OMe) = CN[C@@H](Cc1c[nH]c2cccc(OC)c12)C(=O)O; NMeaIle = CC[C@@H](C)[C@H](NC)C(=O)O; NMe2Val = CC(C)[C@@H](C(=O)*)N(C)C; NMeT = CN[C@H](C(=O)O)[C@@H](C)O; NMeL = CN[C@@H](CC(C)C)C(=O)O; NMeV = CN[C@H](C(=O)O)C(C)C"}
{"smiles": "CC(C)COc1nn(-c2ccc(Oc3ccccc3)cc2)c(=O)o1", "values": [{"measurement": "MIC50", "setting": "[1]", "value": 33, "unit": "µM"}]}
{"smiles": "C/C=C/C[C@@H]1NC(=O)[C@H](CC(C)C)N2C(=O)[C@H](C[C@H](C)[C@H]2O)N(C)C(=O)[C@H](C)NC(=O)[C@H](Cc2ccc(O)c([N+](=O)[O-])c2)NC(=O)[C@H](CC(C)C)N(C)C(=O)[C@H](Cc2cn(C(C)(C)C3CO3)c3ccccc23)NC1=O", "note": "(some centres not stated)", "values": [{"measurement": "Kd", "setting": "[2]", "value": 100, "unit": "nM"}, {"measurement": "MIC", "setting": "[1]", "value": 0.42, "unit": "µM"}]}
{"smiles": "CCCCCCCCCCCCCCCCOP1(=O)OCCC(C(=O)OC)=C(C)O1", "note": "(racemic)", "values": [{"measurement": "MIC50", "setting": "[1]", "value": 0.37, "unit": "µM"}]}
{"smiles": "Cc1cc(C)c2cc(C(=O)NC3CCCCCC3)[nH]c2c1", "values": [{"measurement": "MIC", "setting": "[1]", "value": 0.06, "unit": "µM"}]}
{"smiles": "CC[C@@H](C)[C@@H](C(=O)N[C@@H]1C(=O)N(C)[C@@H]([C@@H](C)O)C(=O)N[C@@H](C(C)C)C(=O)N(C)[C@@H](CC(C)C)C(=O)N[C@@H](C(C)C)C(=O)N(C)[C@@H](C(C)C)C(=O)N(C)[C@@H](Cc2c[nH]c3cccc(OC)c23)C(=O)N[C@@H](C(C)C)C(=O)N[C@@H]([C@H](O)c2ccccc2)C(=O)N[C@@H](C(C)C)C(=O)O[C@@H]1C)N(C)C(=O)[C@@H](NC(=O)[C@H](C(C)C)N(C)C)C(C)C", "note": "(NMe2Val-V[NMeaIle]T[NMeT]V[NMeL]V[NMeV][NMeTrp(4-OMe)]V[Phe(3R-OH)]V; ester 3-C)", "values": [{"measurement": "Kd", "setting": "[2]", "value": 100, "unit": "nM"}, {"measurement": "MIC", "setting": "[3]", "value": 0.16, "unit": "µM"}]}
